# From patent publication US10889620B2, “Solid state forms of linaclotide” (NOVETIDE LTD., priority 2015, dated 2021)
# Bridge positions count the residues as written; N and C are the ends. Peptide text beside a SMILES is read from it.
# What was measured:
# [1] = storage for 3 months; 40° C. and 75% relative humidity; from U.S. Pat. No. 8,222,201, Example 3, Table 13; cited from earlier work
# [2] = Stability test of solid Linaclotide forms, storage in sealed HDPE bottles at 40° C. and 75% relative humidity, hydrolysis product content; type: physicochemical; conditions: sealed 45 cc. HDPE bottles
# Experimental: Linaclotide Form III according to the present invention was subjected to a stability test in accordance with U.S. Pat. No. 8,222,201, Example 3 (storage in sealed 45 cc. high density polyethylene bottles at 40° C. and 75% relative humidity).
# [3] = Stability of Linaclotide solutions with and without ethanol, % multimers by HPLC-SEC; type: physicochemical; conditions: RT, sealed vials
# Experimental: Solutions of Linaclotide in: (A): a 1:1 mixture of 0.2% AcOH: ACN or (B): a 1:1:9.5 mixture of 0.2% AcOH:ACN:EtOH, were stored for 12 days at room temperature (RT) in sealed vials. The solutions were analysed by (HPLC-size exclusion chromatography) (HPLC-SEC), for % multimers (the major degradants present) content (see table below):
# The results are graphically represented in FIG. 6.
structure (smiles),measurement,setting,value
"C[C@@H]1NC(=O)[C@@H]2CCCN2C(=O)[C@H](CC(N)=O)NC(=O)[C@@H]2CSSC[C@H](N)C(=O)N[C@H]3CSSC[C@H](NC1=O)C(=O)N[C@@H]([C@@H](C)O)C(=O)NCC(=O)N[C@H](C(=O)N[C@@H](Cc1ccc(O)cc1)C(=O)O)CSSC[C@H](NC(=O)[C@H](Cc1ccc(O)cc1)NC(=O)[C@H](CCC(=O)O)NC3=O)C(=O)N2 [Form alpha, Linaclotide] (H-CCEYCCNPACTGCY-OH; disulfide 1-6, 2-10, 5-13)",hydrolysis product (L-Asp Linaclotide impurity) content,[1],5.7 wt %
"C[C@@H]1NC(=O)[C@@H]2CCCN2C(=O)[C@H](CC(N)=O)NC(=O)[C@@H]2CSSC[C@H](N)C(=O)N[C@H]3CSSC[C@H](NC1=O)C(=O)N[C@@H]([C@@H](C)O)C(=O)NCC(=O)N[C@H](C(=O)N[C@@H](Cc1ccc(O)cc1)C(=O)O)CSSC[C@H](NC(=O)[C@H](Cc1ccc(O)cc1)NC(=O)[C@H](CCC(=O)O)NC3=O)C(=O)N2 [Linaclotide Form III, Linaclotide] (H-CCEYCCNPACTGCY-OH; disulfide 1-6, 2-10, 5-13)",Linaclotide hydrolysis product (L-Asp Linaclotide impurity) content,[2]; after 4 weeks,0.22%
same,Linaclotide hydrolysis product (L-Asp Linaclotide impurity) content,[2]; extrapolated to 3 months,0.45 wt %
"C[C@@H]1NC(=O)[C@@H]2CCCN2C(=O)[C@H](CC(N)=O)NC(=O)[C@@H]2CSSC[C@H](N)C(=O)N[C@H]3CSSC[C@H](NC1=O)C(=O)N[C@@H]([C@@H](C)O)C(=O)NCC(=O)N[C@H](C(=O)N[C@@H](Cc1ccc(O)cc1)C(=O)O)CSSC[C@H](NC(=O)[C@H](Cc1ccc(O)cc1)NC(=O)[C@H](CCC(=O)O)NC3=O)C(=O)N2 [Linaclotide] (H-CCEYCCNPACTGCY-OH; disulfide 1-6, 2-10, 5-13)",% Multimers according to HPLC-SEC method,"[3]; solution (A) without EtOH: 1:1 0.2% AcOH:ACN, Day 0",1.72%
same,% Multimers according to HPLC-SEC method,"[3]; solution (A) without EtOH: 1:1 0.2% AcOH:ACN, Day 1",1.87%
same,% Multimers according to HPLC-SEC method,"[3]; solution (A) without EtOH: 1:1 0.2% AcOH:ACN, Day 2",1.70%
same,% Multimers according to HPLC-SEC method,"[3]; solution (A) without EtOH: 1:1 0.2% AcOH:ACN, Day 5",3.05%
same,% Multimers according to HPLC-SEC method,"[3]; solution (A) without EtOH: 1:1 0.2% AcOH:ACN, Day 6",3.75%
same,% Multimers according to HPLC-SEC method,"[3]; solution (A) without EtOH: 1:1 0.2% AcOH:ACN, Day 7",3.83%
same,% Multimers according to HPLC-SEC method,"[3]; solution (A) without EtOH: 1:1 0.2% AcOH:ACN, Day 8",4.61%
same,% Multimers according to HPLC-SEC method,"[3]; solution (A) without EtOH: 1:1 0.2% AcOH:ACN, Day 11",6.47%
same,% Multimers according to HPLC-SEC method,"[3]; solution (A) without EtOH: 1:1 0.2% AcOH:ACN, Day 12",7.18%
same,% Multimers according to HPLC-SEC method,"[3]; solution (B) with EtOH: 1:1:9.5 0.2% AcOH:ACN:EtOH, Day 0",1.54%
same,% Multimers according to HPLC-SEC method,"[3]; solution (B) with EtOH: 1:1:9.5 0.2% AcOH:ACN:EtOH, Day 1",1.66%
same,% Multimers according to HPLC-SEC method,"[3]; solution (B) with EtOH: 1:1:9.5 0.2% AcOH:ACN:EtOH, Day 2",2.17%
same,% Multimers according to HPLC-SEC method,"[3]; solution (B) with EtOH: 1:1:9.5 0.2% AcOH:ACN:EtOH, Day 5",2.34%
same,% Multimers according to HPLC-SEC method,"[3]; solution (B) with EtOH: 1:1:9.5 0.2% AcOH:ACN:EtOH, Day 6",3.22%
same,% Multimers according to HPLC-SEC method,"[3]; solution (B) with EtOH: 1:1:9.5 0.2% AcOH:ACN:EtOH, Day 7",3.54%
same,% Multimers according to HPLC-SEC method,"[3]; solution (B) with EtOH: 1:1:9.5 0.2% AcOH:ACN:EtOH, Day 8",3.64%
same,% Multimers according to HPLC-SEC method,"[3]; solution (B) with EtOH: 1:1:9.5 0.2% AcOH:ACN:EtOH, Day 11",3.62%
same,% Multimers according to HPLC-SEC method,"[3]; solution (B) with EtOH: 1:1:9.5 0.2% AcOH:ACN:EtOH, Day 12",4.88%
